Experimental data taken from patent US10577363B2, “Substituted piperidine compounds” (EPIZYME, INC., priority 2014, dated 2020).

Experiments:
SMYD3 [1] = target: T1, SMYD3 (Homo sapiens (Human), UniProt Q9H7B4); assay: SMYD3 biochemical assay (SPA, 3H-SAM methylation of MEKK2 protein substrate); conditions: average of n = 1 to n = 50; read-out: SMYD3 Biochem IC50
How it was run: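 Enzyme: untagged full-length human SMYD3 from E. coli; substrate GST-tagged MEKK2 from insect cells. Buffer 25 mM Tris-Cl pH 8.0, 1 mM TCEP, 0.005% BSG/Tween 20. 30 min compound–enzyme preincubation at RT; 3H-SAM/MEKK2 start; stop with cold SAM (100 uM final); SPA readout in cpm.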

SMYD3 [2] = target: T1, SMYD3; assay: SMYD3 cell assay (Trimethyl-MEKK2 In-Cell Western in 293T/17 cells); assay type: cell-based; conditions: average of n = 1 to n = 50; read-out: SMYD3 Cell IC50
How it was run: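 In-Cell Western readout: methanol-fixed cells stained for trimethyl-MEKK2 and flag tag, ratio per well normalized to DMSO and background controls.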

T1 sequence (Q9H7B4 whole entry): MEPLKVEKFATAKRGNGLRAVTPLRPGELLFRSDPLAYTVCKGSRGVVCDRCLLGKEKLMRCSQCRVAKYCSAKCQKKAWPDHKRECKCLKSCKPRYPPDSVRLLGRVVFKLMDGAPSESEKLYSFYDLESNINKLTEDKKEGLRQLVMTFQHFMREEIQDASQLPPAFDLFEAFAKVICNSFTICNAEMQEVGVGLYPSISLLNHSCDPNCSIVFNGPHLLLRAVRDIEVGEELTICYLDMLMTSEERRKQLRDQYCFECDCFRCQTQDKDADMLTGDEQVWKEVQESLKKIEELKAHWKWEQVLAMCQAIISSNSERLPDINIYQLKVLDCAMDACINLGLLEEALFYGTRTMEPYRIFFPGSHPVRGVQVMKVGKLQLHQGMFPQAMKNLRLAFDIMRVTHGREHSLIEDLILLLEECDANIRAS

Compound | IC50 (SMYD3 [1]) [nM] | IC50 (SMYD3 [2]) [nM]
C[C@H]1CN(S(=O)(=O)N2CCN(C)CC2)[C@@H](C)C[C@H]1NC(=O)c1cc(C2CC2)on1 [compound 731, 5-cyclopropyl-N-((2S,4R,5S)-2,5-dimethyl-1-((4-methylpiperazin-1-yl)sulfonyl)piperidin-4-yl)isoxazole-3-carboxamide] | 418 | 1330
C[C@H]1CN(S(=O)(=O)CCN2CCCC2)[C@@H](C)C[C@H]1NC(=O)c1cc(C2CC2)on1 [compound 732, 5-cyclopropyl-N-((2S,4R,5S)-2,5-dimethyl-1-((2-(pyrrolidin-1-yl)ethyl)sulfonyl)piperidin-4-yl)isoxazole-3-carboxamide] | 431 | 1460
O=C(NC1C[C@H]2CCC[C@H](C1)N2S(=O)(=O)c1ccc(Cl)cn1)c1cc(C2CC2)on1 (stereo partly drawn) [compound 733, N-((1R,5R)-9-((5-chloropyridin-2-yl)sulfonyl)-9-azabicyclo[3.3.1]nonan-3-yl)-5-cyclopropylisoxazole-3-carboxamide] | 442 | 1960
NCCCNc1ncccc1S(=O)(=O)N1[C@@H]2CCC[C@H]1C[C@@H](NC(=O)c1cc(C3CC3)on1)C2 [compound 734, N-((1R,3r,5S)-9-((2-((3-aminopropyl)amino)pyridin-3-yl)sulfonyl)-9-azabicyclo[3.3.1]nonan-3-yl)-5-cyclopropylisoxazole-3-carboxamide] | 442 | 4170
C[C@H]1CN(S(=O)(=O)N2CC[C@H](NC(=O)c3cc(C4CC4)on3)C[C@@H]2C)CCN1C [compound 735, 5-cyclopropyl-N-((2S,4S)-1-(((S)-3,4-dimethylpiperazin-1-yl)sulfonyl)-2-methylpiperidin-4-yl)isoxazole-3-carboxamide] | 446 | 1360
C[C@H]1C[C@@H](NC(=O)c2cc(C3CC3)on2)CCN1S(=O)(=O)N1CCNC(Cc2ccccc2)C1 (stereo partly drawn) [compound 736, N-((2S,4S)-1-((3-benzylpiperazin-1-yl)sulfonyl)-2-methylpiperidin-4-yl)-5-cyclopropylisoxazole-3-carboxamide] | 452 | 2030
C[C@H]1C[C@@H](NC(=O)c2cc(C3CC3)on2)CCN1S(=O)(=O)N1CCNCC1Cc1ccccc1 (stereo partly drawn) [compound 737, N-((2S,4S)-1-((2-benzylpiperazin-1-yl)sulfonyl)-2-methylpiperidin-4-yl)-5-cyclopropylisoxazole-3-carboxamide] | 469 | 6940
C[C@H]1CN(S(=O)(=O)CC2CCN(CCN3CCOCC3)CC2)CC[C@H]1NC(=O)c1cc(C2CC2)on1 [compound 738, 5-cyclopropyl-N-((3S,4R)-3-methyl-1-(((1-(2-morpholinoethyl)piperidin-4-yl)methyl)sulfonyl)piperidin-4-yl)isoxazole-3-carboxamide] | 476 | 2820
O=C(N[C@H]1C[C@H]2CC[C@@H](C1)N2S(=O)(=O)CCc1ccncc1)c1cc(C2CC2)on1 [compound 739, 5-cyclopropyl-N-((1R,3r,5S)-8-((2-(pyridin-4-yl)ethyl)sulfonyl)-8-azabicyclo[3.2.1]octan-3-yl)isoxazole-3-carboxamide] | 491 | 2400
CN(CCN1CCOCC1)CCS(=O)(=O)N1[C@@H]2CC[C@H]1C[C@@H](NC(=O)c1cc(C3CC3)on1)C2 [compound 742, 5-cyclopropyl-N-((1R,3r,5S)-8-((2-(methyl(2-morpholinoethyl)amino)ethyl)sulfonyl)-8-azabicyclo[3.2.1]octan-3-yl)isoxazole-3-carboxamide] | 513 | 899
O=C(N[C@H]1C[C@H]2CC[C@@H](C1)N2S(=O)(=O)CCNCCN1CCOCC1)c1cc(C2CC2)on1 [compound 743, 5-cyclopropyl-N-((1R,3r,5S)-8-((2-((2-morpholinoethyl)amino)ethyl)sulfonyl)-8-azabicyclo[3.2.1]octan-3-yl)isoxazole-3-carboxamide] | 514 | 1820
O=C(N[C@@H]1CCN(S(=O)(=O)CC2CCNCC2)[C@H](Cc2ccccc2)C1)c1cc(C2CC2)on1 [compound 744, N-((2R,4R)-2-benzyl-1-((piperidin-4-ylmethyl)sulfonyl)piperidin-4-yl)-5-cyclopropylisoxazole-3-carboxamide] | 518 | 2350
O=C(N[C@H]1CCN(S(=O)(=O)CC2CCCN2)[C@@H](Cc2ccccc2)C1)c1cc(C2CC2)on1 (stereo partly drawn) [compound 745, N-((2S,4S)-2-benzyl-1-((pyrrolidin-2-ylmethyl)sulfonyl)piperidin-4-yl)-5-cyclopropylisoxazole-3-carboxamide] | 533 | 2640
C[C@@H]1CN(S(=O)(=O)CCN2CCCC2)[C@H](C)C[C@@H]1NC(=O)c1cc(C2CC2)on1 [compound 746, 5-cyclopropyl-N-((2R,4S,5R)-2,5-dimethyl-1-((2-(pyrrolidin-1-yl)ethyl)sulfonyl)piperidin-4-yl)isoxazole-3-carboxamide] | 541 | 1660
C[C@@H]1C[C@H](NC(=O)c2cc(C3CC3)on2)CCN1C(=O)c1ccc2c(c1)ncn2C [compound 747, 5-cyclopropyl-N-((2R,4R)-2-methyl-1-(1-methyl-1H-benzo[d]imidazole-5-carbonyl)piperidin-4-yl)isoxazole-3-carboxamide] | 583 | 2410
CN(CCc1ccccc1)CCS(=O)(=O)N1[C@@H]2CC[C@H]1C[C@@H](NC(=O)c1cc(C3CC3)on1)C2 [compound 748, 5-cyclopropyl-N-((1R,3r,5S)-8-((2-(methyl(phenethyl)amino)ethyl)sulfonyl)-8-azabicyclo[3.2.1]octan-3-yl)isoxazole-3-carboxamide] | 584 | 3180
O=C(N[C@H]1C[C@H]2CC[C@@H](C1)N2S(=O)(=O)N1CCNC(Cc2ccccc2)C1)c1cc(C2CC2)on1 (stereo partly drawn) [compound 749, N-((1R,3r,5S)-8-((3-benzylpiperazin-1-yl)sulfonyl)-8-azabicyclo[3.2.1]octan-3-yl)-5-cyclopropylisoxazole-3-carboxamide] | 590 | 3560
COCCCN1CCC(CS(=O)(=O)N2CC[C@H](NC(=O)c3cc(C4CC4)on3)C[C@@H]2Cc2ccccc2)CC1 [compound 750, N-((2S,4S)-2-benzyl-1-(((1-(3-methoxypropyl)piperidin-4-yl)methyl)sulfonyl)piperidin-4-yl)-5-cyclopropylisoxazole-3-carboxamide] | 625 | 3470
C[C@H]1C[C@@H](NC(=O)c2cc(C3CC3)on2)CCN1S(=O)(=O)N1CCN[C@H](c2ccccc2)C1 [compound 751, 5-cyclopropyl-N-((2S,4S)-2-methyl-1-(((R)-3-phenylpiperazin-1-yl)sulfonyl)piperidin-4-yl)isoxazole-3-carboxamide] | 633 | 2890
O=C(N[C@@H]1CCN(S(=O)(=O)C2CCNC2)[C@H](Cc2ccccc2)C1)c1cc(C2CC2)on1 (stereo partly drawn) [compound 752, N-((2R,4R)-2-benzyl-1-(pyrrolidin-3-ylsulfonyl)piperidin-4-yl)-5-cyclopropylisoxazole-3-carboxamide] | 667 | 2490
O=C(N[C@@H]1C[C@H]2CCC[C@@H](C1)N2S(=O)(=O)c1cncc(F)c1)c1cc(C2CC2)on1 [compound 753, 5-cyclopropyl-N-((1R,3s,5S)-9-((5-fluoropyridin-3-yl)sulfonyl)-9-azabicyclo[3.3.1]nonan-3-yl)isoxazole-3-carboxamide] | 672 | 2040
